# From US9051342B2 (priority 2004, dated 2015)
row,Structure (SMILES),melting point
1,"COc1ccc2c(c1)-c1nn(-c3ccc(C(=O)O)cc3)cc1C2 [Compound 149, 4-(7-Methoxy-4H-indeno[1,2-c]pyrazol-2-yl)-benzoic acid]",304 to 306 °C
2,"O=C(O)c1ccc(-c2ccn(-c3ccc4c(c3)OCCO4)c2)cc1 [Compound 150, 4-[1-(2,3-Dihydro-benzo[1,4]dioxin-6-yl)-1H-pyrrol-3-yl]-benzoic acid]",273 to 276 °C
3,"O=C(O)c1ccc(-c2ccn(-c3ccccc3F)c2)cc1 [Compound 151, 4-[1-(2-Fluoro-phenyl)-1H-pyrrol-3-yl]-benzoic acid]",202 to 204 °C
4,"O=C(O)c1ccc(-c2ccn(-c3cccc(F)c3)c2)cc1 [Compound 152, 4-[1-(3-Fluoro-phenyl)-1H-pyrrol-3-yl]-benzoic acid]",211 to 213 °C
5,"O=C(O)c1ccc(-c2ccn(-c3cc(F)cc(F)c3)c2)cc1 [Compound 153, 4-[1-(3,5-Difluoro-phenyl)-1H-pyrrol-3-yl]-benzoic acid]",243 to 245 °C
6,"O=C(O)c1cccc(-c2ccn(-c3ccc(Cl)cc3)c2)c1 [Compound 155, 3-[1-(4-Chloro-phenyl)-1H-pyrrol-3-yl]-benzoic acid]",211 to 213 °C
7,"Cc1ccc(-n2ccc(-c3cccc(C(=O)O)c3)c2)cc1 [Compound 156, 3-(1-p-Tolyl-1H-pyrrol-3-yl)-benzoic acid]",178 to 181 °C
8,"O=C(O)c1ccc(-n2cc3c(n2)-c2ccccc2CC3)cc1 [Compound 161, 4-(4,5-Dihydro-benzo[g]indazol-2-yl)-benzoic acid]",288 to 290 °C
9,O=C(O)c1ccc(-n2cc3c(n2)-c2ccccc2OC3)cc1 [Compound 162],308 to 310 °C
10,"COc1ccc2c(c1)CCc1cn(-c3ccc(C(=O)O)cc3)nc1-2 [Compound 163, 4-(7-Methoxy-4,5-dihydro-benzo[g]indazol-2-yl)-benzoic acid]",279 to 280 °C
11,"CN(C)c1cccc(-n2ccc(-c3cccc(C(=O)O)c3)n2)c1 [Compound 164, 3-[1-(3-Dimethylamino-phenyl)-1H-pyrazol-3-yl]-benzoic acid]",180 to 183 °C
12,"O=C(O)c1cccc(-c2ccn(-c3cccc(Br)c3)n2)c1 [Compound 165, 3-[1-(3-Bromo-phenyl)-1H-pyrazol-3-yl]-benzoic acid]",180 to 183 °C
13,"Cc1ccc(-n2ccc(-c3cccc(C(=O)O)c3)n2)cc1 [Compound 166, 3-(1-p-Tolyl-1H-pyrazol-3-yl)-benzoic acid]",192 to 193 °C
14,"Cc1cccc(-n2ccc(-c3cccc(C(=O)O)c3)n2)c1 [Compound 167, 3-(1-m-Tolyl-1H-pyrazol-3-yl)-benzoic acid]",162 to 164 °C
15,"O=C(O)c1cccc(-c2ccn(-c3ccc([N+](=O)[O-])cc3)n2)c1 [Compound 168, 3-[1-(4-Nitro-phenyl)-1H-pyrazol-3-yl]-benzoic acid]",280 to 281 °C
16,"O=C(O)c1cccc(-n2ccc(-c3ccccc3F)n2)c1 [Compound 169, 3-[3-(2-Fluoro-phenyl)-pyrazol-1-yl]-benzoic acid]",166 to 167 °C
17,"Cc1ccc(-c2ccn(-c3cccc(C(=O)O)c3)n2)cc1 [Compound 170, 3-(3-p-Tolyl-pyrazol-1-yl)-benzoic acid]",180 to 182 °C
18,"COc1cccc(-n2cc(-c3ccc(C(=O)O)cc3)cn2)c1 [Compound 171, 4-[1-(3-Methoxy-phenyl)-1H-pyrazol-4-yl]-benzoic acid]",211 to 212 °C

row,Structure (SMILES),melting point
1,O=C(O)c1cccc(-c2cnn(-c3cccc(OC(F)F)c3)c2)c1 [Compound 172],179 to 181 °C
2,O=C(O)c1ccc(-c2cnn(-c3cccc(OC(F)F)c3)c2)cc1 [Compound 173],255 to 257 °C
3,"COc1cccc(-n2cc(-c3cccc(C(=O)O)c3)cn2)c1 [Compound 174, 3-[1-(3-Methoxy-phenyl)-1H-pyrazol-4-yl]-benzoic acid]",156 to 157 °C
4,"O=C(O)c1cccc(-c2ccn(-c3cccc(OCc4ccccc4)c3)n2)c1 [Compound 175, 3-[1-(3-Benzyloxy-phenyl)-1H-pyrazol-3-yl]-benzoic acid]",152 to 153 °C
5,"O=C(O)c1cccc(-c2ccn(-c3ccc(OCc4ccccc4)cc3)n2)c1 [Compound 176, 3-[1-(4-Benzyloxy-phenyl)-1H-pyrazol-3-yl]-benzoic acid]",210 to 212 °C
6,"Cc1ccc(-n2cc(-c3cccc(C(=O)O)c3)cn2)cc1 [Compound 177, 3-(1-p-Tolyl-1H-pyrazol-4-yl)-benzoic acid]",229 to 231 °C
7,"Cc1ccc(-n2cc(-c3ccc(C(=O)O)cc3)cn2)cc1 [Compound 178, 4-(1-p-Tolyl-1H-pyrazol-4-yl)-benzoic acid]",280 to 282 °C
8,"O=C(O)c1cccc(-c2cnn(-c3ccc(F)cc3F)c2)c1 [Compound 179, 3-[1-(2,4-Difluoro-phenyl)-1H-pyrazol-4-yl]-benzoic acid]",200 to 202 °C
9,"O=C(O)c1ccc(-c2cnn(-c3ccc(F)cc3F)c2)cc1 [Compound 180, 4-[1-(2,4-Difluoro-phenyl)-1H-pyrazol-4-yl]-benzoic acid]",258 to 260 °C
10,"O=C(O)c1cccc(-c2cnn(-c3ccc(F)cc3)c2)c1 [Compound 181, 3-[1-(4-Fluoro-phenyl)-1H-pyrazol-4-yl]-benzoic acid]",235 to 237 °C
11,"O=C(O)c1ccc(-c2cnn(-c3ccc(F)cc3)c2)cc1 [Compound 182, 4-[1-(4-Fluoro-phenyl)-1H-pyrazol-4-yl]-benzoic acid]",266 to 268 °C
12,"O=C(O)c1cccc(-n2cc3c(n2)-c2cccc(OC(F)F)c2CC3)c1 [Compound 183, 3-(6-Difluoromethoxy-4,5-dihydro-benzo[g]indazol-2-yl)-benzoic acid]",235 to 237 °C
13,"COc1cccc2c1Cc1cn(-c3cccc(C(=O)O)c3)nc1-2 [Compound 184, 3-(5-Methoxy-4H-indeno[1,2-c]pyrazol-2-yl)-benzoic acid]",277 to 278 °C
14,"O=C(O)c1cccc(-n2cc3c(n2)-c2cccc(OC(F)F)c2C3)c1 [Compound 185, 3-(5-Difluoromethoxy-4H-indeno[1,2-c]pyrazol-2-yl)-benzoic acid]",240 to 241 °C
15,"O=C(O)c1ccc(-n2cc3c(n2)-c2cccc(OC(F)F)c2CC3)cc1 [Compound 186, 4-(6-Difluoromethoxy-4,5-dihydro-benzo[g]indazol-2-yl)-benzoic acid]",282 to 283 °C
16,"COc1cccc2c1Cc1cn(-c3ccc(C(=O)O)cc3)nc1-2 [Compound 187, 4-(5-Methoxy-4H-indeno[1,2-c]pyrazol-2-yl)-benzoic acid]",311 to 313 °C
17,"O=C(O)c1ccc(-n2cc3c(n2)-c2cccc(OC(F)F)c2C3)cc1 [Compound 188, 4-(5-Difluoromethoxy-4H-indeno[1,2-c]pyrazol-2-yl)-benzoic acid]",277 to 278 °C
18,COc1ccccc1-n1ccc(-c2ccc(C(=O)O)cc2)c1 [Compound 193],200 to 202 °C

# The remaining lines, values ahead:
row,melting point,Structure (SMILES)
1,212 to 213 °C,"Cc1cccc(-n2ccc(-c3ccc(C(=O)O)cc3)c2)c1 [Compound 194, 4-(1-m-Tolyl-1H-pyrrol-3-yl)-benzoic acid]"
2,208 to 209 °C,"Cc1ccccc1-n1ccc(-c2ccc(C(=O)O)cc2)c1 [Compound 195, 4-(1-o-Tolyl-1H-pyrrol-3-yl)-benzoic acid]"
3,> 350 °C,"O=C(O)c1ccc(-c2ccn(-c3ccc(Cl)cc3)c2)cc1 [Compound 196, 4-[1-(4-Chloro-phenyl)-1H-pyrrol-3-yl]-benzoic acid]"
4,200 to 202 °C,"O=C(O)c1ccc(-c2ccn(-c3ccccc3Cl)c2)cc1 [Compound 197, 4-[1-(2-Chloro-phenyl)-1H-pyrrol-3-yl]-benzoic acid]"
5,198 to 200 °C,"O=C(O)c1cccc(-c2ccn(-c3ccccc3Cl)c2)c1 [Compound 198, 3-[1-(2-Chloro-phenyl)-1H-pyrrol-3-yl]-benzoic acid]"
6,164 to 165 °C,"O=C(O)c1ccc(-c2ccn(-c3ccccc3OC(F)(F)F)c2)cc1 [Compound 199, 4-[1-(2-Trifluoromethoxy-phenyl)-1H-pyrrol-3-yl]-benzoic acid]"
7,> 350 °C,"COc1ccccc1-n1ccc(-c2cccc(C(=O)O)c2)c1 [Compound 200, 3-[1-(2-Methoxy-phenyl)-1H-pyrrol-3-yl]-benzoic acid]"
8,302 to 303 °C,"Cc1ccc(-c2cn(-c3ccc(C(=O)O)cc3)nn2)cc1 [Compound 201, 4-(4-p-Tolyl-[1,2,3]triazol-1-yl)-benzoic acid]"
9,305 to 306 °C,"O=C(O)c1ccc(-n2cc(-c3ccc(C(F)(F)F)cc3)nn2)cc1 [Compound 202, 4-[4-(4-Trifluoromethyl-phenyl)-[1,2,3]triazol-1-yl]-benzoic acid]"
10,294 to 295 °C,"COc1ccc(-c2cn(-c3ccc(C(=O)O)cc3)nn2)cc1 [Compound 203, 4-[4-(4-Methoxy-phenyl)-[1,2,3]triazol-1-yl]-benzoic acid]"
11,276 to 277 °C,"COc1cccc(-c2cn(-c3ccc(C(=O)O)cc3)nn2)c1 [Compound 204, 4-[4-(3-Methoxyphenyl)-[1,2,3]triazol-1-yl]benzoic acid]"
12,286 to 288 °C,"O=C(O)c1ccc(-n2cc(-c3ccc4c(c3)OCO4)cn2)cc1 [Compound 205, 4-(4-Benzo[1,3]dioxol-5-yl-pyrazol-1-yl)-benzoic acid]"
13,273 to 275 °C,"O=C(O)c1ccc(-n2cc(-c3cccc(O)c3)cn2)cc1 [Compound 206, 4-[4-(3-Hydroxy-phenyl)-pyrazol-1-yl]-benzoic acid]"
14,272 to 274 °C,"O=C(O)c1cccc(-n2cc(-c3cccc(O)c3)cn2)c1 [Compound 207, 3-[4-(3-Hydroxy-phenyl)-pyrazol-1-yl]-benzoic acid]"
15,225 to 227 °C,"O=C(O)c1ccc(-n2cc(-c3cccc(OC(F)(F)F)c3)cn2)cc1 [Compound 208, 4-[4-(3-Trifluoromethoxy-phenyl)-pyrazol-1-yl]-benzoic acid]"
16,166 to 168 °C,"O=C(O)c1cccc(-n2cc(-c3cccc(OC(F)(F)F)c3)cn2)c1 [Compound 209, 3-[4-(3-Trifluoromethoxy-phenyl)-pyrazol-1-yl]-benzoic acid]"
